Assay results: ChEMBL document CHEMBL3217488, “Preliminary in vitro evaluation of N-(benzofuroxan-5-yl)methylene benzohydrazide derivatives as potential anti-Trypanosoma cruzi agents” (Medchemcomm, 2012)

Tested on: Trypanosoma cruzi
Assay: Antitrypanosomal activity against epimastigote stage of Trypanosoma cruzi Y assessed as parasite growth inhibition at 50 ug/mL after 72 hrs by spectrophotometric analysis relative to control
Format: functional
Details: read-out: GI
In the case of `O=C(N/N=C/c1ccc2c(c1)no[n+]2[O-])c1ccc(F)cc1`, the inhibition of growth at 50 µg/mL is reported as 78%. With `CCOc1ccc(C(=O)N/N=C/c2ccc3c(c2)no[n+]3[O-])cc1` the inhibition of growth at 50 µg/mL was 66%. For `O=C(N/N=C/c1ccc2c(c1)no[n+]2[O-])c1ccc(Cl)cc1Cl`, the inhibition of growth at 50 µg/mL was 89%. Molecule `O=C(N/N=C/c1ccc2c(c1)no[n+]2[O-])c1ccc([N+](=O)[O-])c(C(F)(F)F)c1` has an inhibition of growth at 50 µg/mL of 82%. `O=C(N/N=C/c1ccc2c(c1)no[n+]2[O-])c1ccc(C(F)(F)F)cc1` showed an inhibition of growth at 50 µg/mL of 82%. For `O=C(N/N=C/c1ccc2c(c1)no[n+]2[O-])c1ccc(O)cc1`, the inhibition of growth at 50 µg/mL was 47%. `NS(=O)(=O)c1ccc(C(=O)N/N=C/c2ccc3c(c2)no[n+]3[O-])cc1` gave an inhibition of growth at 50 µg/mL of 12%. `COc1ccc(C(=O)N/N=C/c2ccc3c(c2)no[n+]3[O-])cc1` showed an inhibition of growth at 50 µg/mL of 76%. For `O=C(N/N=C/c1ccc2c(c1)no[n+]2[O-])c1ccc(Br)cc1`, the inhibition of growth at 50 µg/mL was 58%. `CCc1ccc(C(=O)N/N=C/c2ccc3c(c2)no[n+]3[O-])cc1` gave an inhibition of growth at 50 µg/mL of 85%. For `O=C(N/N=C/c1ccc2c(c1)no[n+]2[O-])c1ccc(Cl)cc1`, the inhibition of growth at 50 µg/mL was 62%. Molecule `O=C(N/N=C/c1ccc2c(c1)no[n+]2[O-])c1ccccc1` has an inhibition of growth at 50 µg/mL of 95%. `O=C(Cn1ccnc1[N+](=O)[O-])NCc1ccccc1` [BENZNIDAZOLE] gave an inhibition of growth at 50 µg/mL of 77%. Work on `O=C(N/N=C/c1ccc2c(c1)no[n+]2[O-])c1ccc(Cl)c(Cl)c1` yielded an inhibition of growth at 50 µg/mL of 75%. Work on `O=C(N/N=C/c1ccc2c(c1)no[n+]2[O-])c1ccc(I)cc1` yielded an inhibition of growth at 50 µg/mL of 60%. Molecule `Nc1ccc(C(=O)N/N=C/c2ccc3c(c2)no[n+]3[O-])cc1` has an inhibition of growth at 50 µg/mL of 42%. Molecule `N#Cc1ccc(C(=O)N/N=C/c2ccc3c(c2)no[n+]3[O-])cc1` has an inhibition of growth at 50 µg/mL of 44%. Molecule `Cc1ccc(C(=O)N/N=C/c2ccc3c(c2)no[n+]3[O-])cc1` has an inhibition of growth at 50 µg/mL of 76%. `CN(C)c1ccc(C(=O)N/N=C/c2ccc3c(c2)no[n+]3[O-])cc1` gave an inhibition of growth at 50 µg/mL of 10%. With `CC(=O)c1ccc(C(=O)N/N=C/c2ccc3c(c2)no[n+]3[O-])cc1` the inhibition of growth at 50 µg/mL was 83%. Work on `O=C(N/N=C/c1ccc2c(c1)no[n+]2[O-])c1ccc([N+](=O)[O-])cc1` yielded an inhibition of growth at 50 µg/mL of 73%.

Tested on: Trypanosoma cruzi
Assay: Antitrypanosomal activity against epimastigote stage of Trypanosoma cruzi Y assessed as parasite growth inhibition at 20 ug/mL after 72 hrs by spectrophotometric analysis relative to control
Format: functional
Details: read-out: GI
Molecule `O=C(N/N=C/c1ccc2c(c1)no[n+]2[O-])c1ccc(F)cc1` has an inhibition of growth at 20 µg/mL of 79%. In the case of `CCOc1ccc(C(=O)N/N=C/c2ccc3c(c2)no[n+]3[O-])cc1`, the inhibition of growth at 20 µg/mL is reported as 68%. Molecule `O=C(N/N=C/c1ccc2c(c1)no[n+]2[O-])c1ccc(Cl)cc1Cl` has an inhibition of growth at 20 µg/mL of 72%. `O=C(N/N=C/c1ccc2c(c1)no[n+]2[O-])c1ccc([N+](=O)[O-])c(C(F)(F)F)c1` showed an inhibition of growth at 20 µg/mL of 82%. Work on `O=C(N/N=C/c1ccc2c(c1)no[n+]2[O-])c1ccc(C(F)(F)F)cc1` yielded an inhibition of growth at 20 µg/mL of 86%. For `O=C(N/N=C/c1ccc2c(c1)no[n+]2[O-])c1ccc(O)cc1`, the inhibition of growth at 20 µg/mL was 3%. In the case of `NS(=O)(=O)c1ccc(C(=O)N/N=C/c2ccc3c(c2)no[n+]3[O-])cc1`, the inhibition of growth at 20 µg/mL is reported as 9%. In the case of `COc1ccc(C(=O)N/N=C/c2ccc3c(c2)no[n+]3[O-])cc1`, the inhibition of growth at 20 µg/mL is reported as 69%. In the case of `O=C(N/N=C/c1ccc2c(c1)no[n+]2[O-])c1ccc(Br)cc1`, the inhibition of growth at 20 µg/mL is reported as 76%. For `CCc1ccc(C(=O)N/N=C/c2ccc3c(c2)no[n+]3[O-])cc1`, the inhibition of growth at 20 µg/mL was 76%. With `O=C(N/N=C/c1ccc2c(c1)no[n+]2[O-])c1ccc(Cl)cc1` the inhibition of growth at 20 µg/mL was 83%. Molecule `O=C(N/N=C/c1ccc2c(c1)no[n+]2[O-])c1ccccc1` has an inhibition of growth at 20 µg/mL of 82%. In the case of `O=C(Cn1ccnc1[N+](=O)[O-])NCc1ccccc1` [BENZNIDAZOLE], the inhibition of growth at 20 µg/mL is reported as 66%. In the case of `O=C(N/N=C/c1ccc2c(c1)no[n+]2[O-])c1ccc(Cl)c(Cl)c1`, the inhibition of growth at 20 µg/mL is reported as 81%. For `O=C(N/N=C/c1ccc2c(c1)no[n+]2[O-])c1ccc(I)cc1`, the inhibition of growth at 20 µg/mL was 81%. `Nc1ccc(C(=O)N/N=C/c2ccc3c(c2)no[n+]3[O-])cc1` gave an inhibition of growth at 20 µg/mL of 24%. `N#Cc1ccc(C(=O)N/N=C/c2ccc3c(c2)no[n+]3[O-])cc1` showed an inhibition of growth at 20 µg/mL of 39%. `Cc1ccc(C(=O)N/N=C/c2ccc3c(c2)no[n+]3[O-])cc1` gave an inhibition of growth at 20 µg/mL of 62%. `CN(C)c1ccc(C(=O)N/N=C/c2ccc3c(c2)no[n+]3[O-])cc1` gave an inhibition of growth at 20 µg/mL of 7%. With `CC(=O)c1ccc(C(=O)N/N=C/c2ccc3c(c2)no[n+]3[O-])cc1` the inhibition of growth at 20 µg/mL was 34%. Work on `O=C(N/N=C/c1ccc2c(c1)no[n+]2[O-])c1ccc([N+](=O)[O-])cc1` yielded an inhibition of growth at 20 µg/mL of 73%.

Tested on: Trypanosoma cruzi
Assay: Antitrypanosomal activity against epimastigote stage of Trypanosoma cruzi Y assessed as parasite growth inhibition at 10 ug/mL after 72 hrs by spectrophotometric analysis relative to control
Format: functional
Details: read-out: GI
Work on `O=C(N/N=C/c1ccc2c(c1)no[n+]2[O-])c1ccc(F)cc1` yielded an inhibition of growth at 10 µg/mL of 45%. In the case of `CCOc1ccc(C(=O)N/N=C/c2ccc3c(c2)no[n+]3[O-])cc1`, the inhibition of growth at 10 µg/mL is reported as 32%. Work on `O=C(N/N=C/c1ccc2c(c1)no[n+]2[O-])c1ccc(Cl)cc1Cl` yielded an inhibition of growth at 10 µg/mL of 42%. For `O=C(N/N=C/c1ccc2c(c1)no[n+]2[O-])c1ccc([N+](=O)[O-])c(C(F)(F)F)c1`, the inhibition of growth at 10 µg/mL was 54%. Molecule `O=C(N/N=C/c1ccc2c(c1)no[n+]2[O-])c1ccc(C(F)(F)F)cc1` has an inhibition of growth at 10 µg/mL of 65%. In the case of `O=C(N/N=C/c1ccc2c(c1)no[n+]2[O-])c1ccc(O)cc1`, the inhibition of growth at 10 µg/mL is reported as 0%. `NS(=O)(=O)c1ccc(C(=O)N/N=C/c2ccc3c(c2)no[n+]3[O-])cc1` showed an inhibition of growth at 10 µg/mL of 5%. `COc1ccc(C(=O)N/N=C/c2ccc3c(c2)no[n+]3[O-])cc1` gave an inhibition of growth at 10 µg/mL of 36%. `O=C(N/N=C/c1ccc2c(c1)no[n+]2[O-])c1ccc(Br)cc1` gave an inhibition of growth at 10 µg/mL of 44%. `CCc1ccc(C(=O)N/N=C/c2ccc3c(c2)no[n+]3[O-])cc1` showed an inhibition of growth at 10 µg/mL of 47%. In the case of `O=C(N/N=C/c1ccc2c(c1)no[n+]2[O-])c1ccc(Cl)cc1`, the inhibition of growth at 10 µg/mL is reported as 54%. Work on `O=C(N/N=C/c1ccc2c(c1)no[n+]2[O-])c1ccccc1` yielded an inhibition of growth at 10 µg/mL of 46%. `O=C(Cn1ccnc1[N+](=O)[O-])NCc1ccccc1` [BENZNIDAZOLE] gave an inhibition of growth at 10 µg/mL of 44%. Molecule `O=C(N/N=C/c1ccc2c(c1)no[n+]2[O-])c1ccc(Cl)c(Cl)c1` has an inhibition of growth at 10 µg/mL of 51%. Molecule `O=C(N/N=C/c1ccc2c(c1)no[n+]2[O-])c1ccc(I)cc1` has an inhibition of growth at 10 µg/mL of 54%. `Nc1ccc(C(=O)N/N=C/c2ccc3c(c2)no[n+]3[O-])cc1` showed an inhibition of growth at 10 µg/mL of 7%. Work on `N#Cc1ccc(C(=O)N/N=C/c2ccc3c(c2)no[n+]3[O-])cc1` yielded an inhibition of growth at 10 µg/mL of 8%. `Cc1ccc(C(=O)N/N=C/c2ccc3c(c2)no[n+]3[O-])cc1` showed an inhibition of growth at 10 µg/mL of 34%. With `CN(C)c1ccc(C(=O)N/N=C/c2ccc3c(c2)no[n+]3[O-])cc1` the inhibition of growth at 10 µg/mL was 4%. In the case of `CC(=O)c1ccc(C(=O)N/N=C/c2ccc3c(c2)no[n+]3[O-])cc1`, the inhibition of growth at 10 µg/mL is reported as 14%. With `O=C(N/N=C/c1ccc2c(c1)no[n+]2[O-])c1ccc([N+](=O)[O-])cc1` the inhibition of growth at 10 µg/mL was 13%.

Tested on: not listed separately
Assay: Genotoxicity in human bronchial epithelial cells assessed as increase of micronucleated cells at 50 ug/mL after 24 hrs by acridine orange staining-based fluorescence microscopic analysis
Format: toxicity
Details: epithelial cell
In the case of `O=C(N/N=C/c1ccc2c(c1)no[n+]2[O-])c1ccc(C(F)(F)F)cc1`, the Activity is reported as “Non-toxic”. For `O=C(N/N=C/c1ccc2c(c1)no[n+]2[O-])c1ccc(Cl)cc1`, the Activity was “Non-toxic”. In the case of `O=C(N/N=C/c1ccc2c(c1)no[n+]2[O-])c1ccccc1`, the Activity is reported as “Non-toxic”.
